Results on seven compounds are retold here after PMC9499467, “Phenanthroindolizidine Alkaloids Isolated from Tylophora ovata as Potent Inhibitors of Inflammation, Spheroid Growth, and Invasion of Triple-Negative Breast Cancer” (International Journal of Molecular Sciences, 2022).

Molecules are shown by their SMILES. Read-outs that look alike come from different tables or passages of the source. Where only a bound is given, the exact number is not on record here.

Data set [1] concerns the target NFκB. Nature of the data set: NFκB inhibition assay (2 h), NFκB-dependent nanoluc luciferase reporter. The format is cell-based, human. The method, then: Experiments were performed according to the published protocol. On day 1, 4 × 10^4 NFκB-MDA-MB-231-nanoluc cells were seeded into white 96 well plates (Greiner; #655098). On day 2, the medium was replaced with starvation medium and the cells were pre-incubated for 20 min with either 100 µL of DMSO (Roth; #A994.1) alone at a concentration of maximal 0.1% or with the final concentration of the diluted compounds (Table 3). To activate NFκB signaling, cells were stimulated with 1 µg/mL LPS (Sigma-Aldrich; #L2630) beforehand. NFκB-dependent luciferase activity was measured according to the manufacturer`s protocol for the Nano-Glo Luciferase Assay System (Promega, Mannheim, Germany; #N1110). NFκB-dependent luminescence was determined as relative light units (RLU) using the microplate reader Spark® (Tecan, Männedorf, Switzerland).
(A reporter such as luciferase makes a cellular process visible.)

Another data set concerns HIF-1α. Nature of the data set: HIF inhibition, HIF-mediated UnaG reporter expression. In kind it is cell-based. The method, then: The HIF activity after treatment with compound (1s) or with the commercially available NFκB inhibitor BAY 11-7085 ((Hycultec, Beutelsbach, Germany; #HY-10257-10),) for 24 h was determined using the UnaG-reporter gene cell line MDA-MB-468-UnaG. On day 1, 1.5 × 10^4 MDA-MB-468-UnaG cells were seeded into a black 96 well plate (Greiner; #655090). […] HIF-mediated UnaG expression was recorded in z-stacked images using the CQ1 high-content imaging system (Yokogawa, Wehr, Germany; 100× g magnification). Beforehand, the UnaG fluorescence intensity was determined in UnaG-expressing cell clones (Figure S5).
Figure 7 Compound (1s) decreases HIF-dependent gene transcription. MDA-MB-468-UnaG cells were pre-treated for 1 h without (CTRL) or with compound (1s) or BAY 11-7085 (BAY) before being grown (a,b) in the absence (normoxia; CTRL) or (c,d) presence of 100 µM CoCl2 (hypoxia) for another 24 h. (a,c) Representative fluorescence images. Scale bar: 200 µm (b,d) Total fluorescence intensity of HIF-mediated UnaG was normalized to the CTRL group. Statistical difference was calculated with one-way ANOVA (b) vs. CTRL (normoxia) (ns = not significant, * p < 0.05). (d) vs. CTRL (hypoxia) (# p < 0.05); vs. CoCl2 (* p < 0.05, ** p < 0.01, *** p < 0.001). (b,d) Columns represent the mean ± SEM (n = 3).

Another data set concerns CAFs. Nature of the data set: 2D cell viability in CAFs. In kind it is cell-based, murine. To be noted: Mus musculus, 24 h, read-out: Reduction of Cell Viability 24 h IC50 in CAFs. As for the experimental part: Table S1 IC50-values for reduction of cell viability determined in CAFs.
Compound Cell Viability 1
1 Cell viability of CAFs was determined 24 h post-treatment with the 2D cell viability assay. CAFs were seeded at a cell density of 2.5 × 10^3 cells per well. Compound concentration was applied in triplicates in a four-fold serial dilution starting at 1000 nM. 2 Duration of treatment. 3 Mean ± SD […]
50 µM. 4 Mean ± SD (n = 3). 5 Mean ± SD (n = 2).

For data set [2], the system named is NFκB. Description: NFκB inhibition assay (24 h), NFκB-dependent firefly luciferase reporter. In kind it is cell-based. The conditions noted are these: Homo sapiens, read-out: NFκB Inhibition 24 h IC50. As for the experimental part: On day 1, 3 × 10^4 NFκB MDA-MB-231-firefly cells were seeded into white 96 well plates (Greiner; #655098). On day 2, the medium was replaced with starvation medium and the cells were pre-incubated for 20 min with either 100 µL of DMSO (Roth; #A994.1) alone at maximal 0.1%, or with the final concentration of the diluted compounds (Table 3). To activate NFκB signaling, cells were stimulated with 20 ng/mL TNFα (Peprotech, Hamburg, Germany; #300-01A). Cell lysis was performed in 20 µL 1× cell lysis buffer according to the manufacturer’s instruction for the Luciferase Assay System (Promega #E1500). NFκB-dependent luminescence was determined as relative light units (RLU) using the microplate reader Spark® (Tecan).

In data set [3] the test system is 3D co-culture spheroids of MDA-MB-231 and primary murine CAFs. Description: 3D cell viability (ATP content) in TNBC co-culture spheroids. The format is cell-based, human MDA-MB-231. To be noted: for IC50: Mus musculus. As for the experimental part:
On day 1, 3000 cells were seeded into a low-attachment 96 well plate (Greiner; #650970). […] Cell viability was determined based on the ATP content in viable cells according to the manufacturer`s instructions (Promega #G9682). Co-culture spheroids were generated for 72 h before they were grown for another 72 h with or without exposure to the compounds. […] Cell viability-dependent luminescence was determined as relative light units (RLU) using the microplate reader Spark® (Tecan).

The test system of a further data set is HIF. Also on record: method as in earlier work. To be noted: luminal breast cancer cell line T47D; ref 62 (Chen et al.); cited from earlier work.
The subject of the next data set is MDA-MB-231. Nature of the data set: 2D cell viability (PrestoBlue resazurin) in MDA-MB-231. The format is cell-based, human. The conditions noted are these: Homo sapiens. The method, then:
Cell viability was determined based on resazurin-reduction in viable cells according to the PrestoBlue^TM Assay. On day 1, MDA-MB-231 (1.5 × 10^4 cells per well or 7.5 × 10^3 cells per well) were seeded into black 96 well plates (Greiner; #655090) in a total volume of 100 µL. On day 2, the compounds or DMSO (Roth; #A994.1) alone at maximal 0.1% were applied (final concentrations after serial dilution shown in Table 3). An amount of 20 µM staurosporine (Sigma-Aldrich; #S5921) served as a positive control. On day 3, the PrestoBlue^TM reagent (Invitrogen^TM, Darmstadt, Germany; #A13262) was applied according to the manufacturer`s instructions. Finally, cell viability-dependent fluorescence was recorded in relative fluorescence units (RFU) with excitation/emission (Exλ/Emλ) at 535/590 nm or 560/590 nm, using the microplate reader Spark® (Tecan).
(Resazurin is reduced to fluorescent resorufin, in cell work by metabolically active cells.)

[4] abbreviates: Homo sapiens, NFκB-MDA-MB-231-nanoluc cells, 2-h treatment, mean ± SD, read-out: NFκB Inhibition 2 h IC50.
The mark [5] stands for this setting: NFκB-MDA-MB-231-firefly cells, 24-h treatment, 20 ng/mL TNFα, mean ± SD.
The mark [6] stands for this setting: MDA-MB-231, 3D co-culture spheroids, 72 h treatment, mean ± SD (n = 3), read-out: Reduction of Cell Viability 72 h IC50.
The mark [7] stands for this setting: MDA-MB-231 2D monolayer, 24 h post-treatment, mean ± SD, read-out: Reduction of Cell Viability 24 h IC50.

Consider `CC(C)(C)c1ccc(S(=O)(=O)/C=C/C#N)cc1` [BAY 11-7085, reference compound], for which, on NFκB [1] (NFκB-MDA-MB-231-nanoluc cells, 2-h treatment, mean ± SD, read-out: NFκB Inhibition 2 h IC50), the IC50 was 5.5 ± 2 µM. Moreover, the “effect on HIF-1α-mediated UnaG expression” value in the data set with HIF-1α (normoxia) is “no significant effects”. In addition, the “CoCl2-induced increase in HIF-1α-activity” value in the data set on HIF-1α (pre-treatment before CoCl2-simulated hypoxia, 6 µM BAY 11-7085, 2, 5, 10, 20 nM (1s)) is listed as “blocked”.
For `COc1ccc2c3c(c4cc(OC)c(O)cc4c2c1)CN1CCC[C@H]1[C@H]3O` [Compound (2), tylophorinidine], the IC50 with NFκB [1] (setting [4]) was 0.212 ± 0.0699 µM; with CAFs (CAFs, mean ± SD (n = 3)), 0.0197 ± 0.0037 µM; in the data set on NFκB [2] (setting [5]), 0.0382 ± 0.0142 µM; in data set [3] (setting [6]) it was 0.442 ± 0.0708 µM; in the data set on MDA-MB-231 (setting [7]), 0.118 ± 0.035 µM. Also, in the data set on HIF, the “HIF induction under low oxygen level” value is “blockade of HIF induction”.
On to `COc1cc2c3c(c4ccc(O)cc4c2cc1OC)[C@H](O)[C@@H]1CCCN1C3` [Compound (3), tylophoridicine E], for which the 50% inhibitory concentration (IC50) in the data set on NFκB [1] (setting [4]) stood at 0.285 ± 0.0604 µM; in the data set on CAFs (CAFs, mean ± SD (n = 3)), 0.0267 ± 0.0031 µM; with NFκB [2] (setting [5]), 0.115 ± 0.0179 µM; in data set [3] (setting [6]) it was 0.477 ± 0.16 µM; with MDA-MB-231 (setting [7]) it was 0.0553 ± 0.0132 µM. The “HIF induction under low oxygen level” value in the data set with HIF was “blockade of HIF induction”.
For `COc1ccc2c3c(c4cc(OC)c(OC)cc4c2c1)CN1CCC[C@H]1C3` [Compound (4), 2-demethoxytylophorine], the IC50 with NFκB [1] (Homo sapiens, 2 h, read-out: NFκB Inhibition 2 h IC50, NFκB-MDA-MB-231-nanoluc cells, 2-h treatment, mean ± SD) was 0.083 ± 0.0147 µM; in the data set with CAFs, 0.0335 ± 0.0127 µM; with NFκB [2] (24 h), 0.0283 ± 0.0056 µM; in data set [3] (MDA-MB-231, 72 h, read-out: Reduction of Cell Viability 72 h IC50, 3D co-culture spheroids, 72 h treatment, mean ± SD (n = 3)) it was 0.518 ± 0.0768 µM; in the data set on MDA-MB-231 (MDA-MB-231, 24 h, read-out: Reduction of Cell Viability 24 h IC50, MDA-MB-231 2D monolayer, 24 h post-treatment, mean ± SD) it was 0.127 ± 0.0214 µM.
As to `COc1ccc2c(c1)c1cc(OC)c(OC)cc1c1c[n+]3c(cc21)CCC3` [Compound (5), tylophoridicine D], the half-inhibitory concentration (IC50) is more than 1 µM with NFκB [1] (setting [4]); more than 1 µM in the data set on CAFs (CAFs, mean ± SD (n = 3)); more than 1 µM in the data set on NFκB [2] (setting [5]); more than 1 µM in data set [3] (setting [6]); more than 1 µM in the data set with MDA-MB-231 (setting [7]). Besides, in data set [3] (in MDA-MB-231 or in the 3D co-culture spheroids), the “cytotoxic activity” value is given as “no cytotoxic activity”. Also, in the data set with HIF, the “HIF induction under low oxygen level” value is given as “not”.
For `COc1ccc2c(c1)c1cc(O)c(OC)cc1c1c[n+]3c(cc21)CCC3` [Compound (6), anhydrodehydrotylophorinidine], the IC50 was more than 1 µM in the data set on NFκB [1] (setting [4]); more than 1 µM in the data set with CAFs (CAFs, mean ± SD (n = 3)); more than 1 µM in the data set with NFκB [2] (setting [5]); more than 1 µM in data set [3] (setting [6]); more than 1 µM in the data set with MDA-MB-231 (setting [7]). For the same compound, the “cytotoxic activity” value in data set [3] was “no cytotoxic activity”.
For `COc1ccc2c3c(c4cc(OC)c(OC)cc4c2c1)CN1CCC[C@H]1[C@@H]3O` [tylophorinine], the “HIF induction under low oxygen level” value in the data set with HIF is “blockade of HIF induction”.

Usually IC50 stands for the concentration that gives 50% inhibition.
